Measurements reported in PubChem BioAssay (NCI).
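Cultured in 96-well plates, cells were exposed to test compound for 48 hours across five concentrations. At the TGI there is no net growth.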

Tests used:
Test in all cases: NCI tumour cell line growth inhibition, 48 h
HCT-116 colon = system: HCT-116 colon
HT29 colon = system: HT29 colon
MCF7 breast = system: MCF7 breast
COLO 205 colon = system: COLO 205 colon
EKVX NSCLC = system: EKVX NSCLC
XF 498 CNS = system: XF 498 CNS
MALME-3M melanoma = system: MALME-3M melanoma
IGROV1 ovarian = system: IGROV1 ovarian
NCI-H522 lung = system: NCI-H522 lung
DMS 273 small cell lung = system: DMS 273 small cell lung
RXF 393 renal = system: RXF 393 renal
SN12C renal = system: SN12C renal
U251 CNS = system: U251 CNS
SF-295 CNS = system: SF-295 CNS
P388 leukemia = system: P388 leukemia
SF-539 CNS = system: SF-539 CNS
KM20L2 colon = system: KM20L2 colon
KM12 colon = system: KM12 colon
NCI-H460 lung = system: NCI-H460 lung
SW-620 colon = system: SW-620 colon
LOX IMVI melanoma = system: LOX IMVI melanoma
OVCAR-3 ovarian = system: OVCAR-3 ovarian
HOP-62 NSCLC = system: HOP-62 NSCLC
SF-268 CNS = system: SF-268 CNS
HCC-2998 colon = system: HCC-2998 colon
NCI-H23 lung = system: NCI-H23 lung
SK-MEL-2 melanoma = system: SK-MEL-2 melanoma
OVCAR-8 ovarian = system: OVCAR-8 ovarian
SK-MEL-28 melanoma = system: SK-MEL-28 melanoma
OVCAR-5 ovarian = system: OVCAR-5 ovarian
HOP-18 NSCLC = system: HOP-18 NSCLC
SNB-19 CNS = system: SNB-19 CNS
HCT-15 colon = system: HCT-15 colon
SNB-78 CNS = system: SNB-78 CNS
SK-MEL-5 melanoma = system: SK-MEL-5 melanoma
NCI-H226 lung = system: NCI-H226 lung
DLD-1 colon = system: DLD-1 colon
HOP-92 NSCLC = system: HOP-92 NSCLC
HL-60(TB) leukemia = system: HL-60(TB) leukemia
M19-MEL melanoma = system: M19-MEL melanoma
UACC-62 melanoma = system: UACC-62 melanoma
K-562 leukemia = system: K-562 leukemia
OVCAR-4 ovarian = system: OVCAR-4 ovarian
UO-31 renal = system: UO-31 renal
MOLT-4 leukemia = system: MOLT-4 leukemia
DMS 114 small cell lung = system: DMS 114 small cell lung
A549 NSCLC = system: A549 NSCLC
NCI/ADR-RES ovarian = system: NCI/ADR-RES ovarian
RPMI-8226 leukemia = system: RPMI-8226 leukemia
UACC-257 melanoma = system: UACC-257 melanoma
A498 renal = system: A498 renal
CCRF-CEM leukemia = system: CCRF-CEM leukemia
SK-OV-3 ovarian = system: SK-OV-3 ovarian
SN12K1 renal = system: SN12K1 renal
SNB-75 CNS = system: SNB-75 CNS

Measured: TGI

COc1cc(N=Nc2ccc(OC)c(S(=O)(=O)O)c2)c(C)cc1N=Nc1ccc(/C=C/c2ccc(N=[N+]([O-])c3ccc(/C=C/c4ccc(N=Nc5cc(C)c(N=Nc6ccc(OC)c(S(=O)(=O)O)c6)cc5OC)cc4S(=O)(=O)O)c(S(=O)(=O)O)c3)cc2S(=O)(=O)O)c(S(=O)(=O)O)c1
> 100 µM: all assays above
